Assay results: ChEMBL document CHEMBL1649420, “Identifying chelators for metalloprotein inhibitors using a fragment-based approach” (J Med Chem, 2011)

Assays:
[1] = molecular target: T1, Polyunsaturated fatty acid 5-lipoxygenase (Homo sapiens) (UniProt P09917); assay: Inhibition of human recombinant 5-lipoxygenase at 1 mM after 10 mins by fluorescence assay
T1 sequence (whole entry): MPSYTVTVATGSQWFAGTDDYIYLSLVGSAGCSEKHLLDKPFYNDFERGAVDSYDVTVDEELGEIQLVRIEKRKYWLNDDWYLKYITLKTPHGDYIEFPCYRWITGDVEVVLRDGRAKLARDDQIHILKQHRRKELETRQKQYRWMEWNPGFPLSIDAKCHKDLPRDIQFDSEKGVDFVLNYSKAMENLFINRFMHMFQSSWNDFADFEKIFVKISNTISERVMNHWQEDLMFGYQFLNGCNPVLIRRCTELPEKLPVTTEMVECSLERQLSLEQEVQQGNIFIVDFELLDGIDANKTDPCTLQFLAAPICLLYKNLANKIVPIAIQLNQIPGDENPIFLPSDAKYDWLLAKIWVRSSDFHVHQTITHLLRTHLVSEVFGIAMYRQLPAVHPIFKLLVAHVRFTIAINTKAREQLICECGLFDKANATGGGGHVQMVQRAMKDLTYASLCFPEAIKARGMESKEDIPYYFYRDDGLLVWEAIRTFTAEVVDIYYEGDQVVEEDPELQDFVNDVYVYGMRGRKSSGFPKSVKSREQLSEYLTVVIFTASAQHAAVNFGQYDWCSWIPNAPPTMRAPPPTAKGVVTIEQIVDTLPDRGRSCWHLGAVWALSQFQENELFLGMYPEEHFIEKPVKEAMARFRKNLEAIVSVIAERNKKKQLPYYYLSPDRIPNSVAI

[2] = molecular target: T2, Lethal factor (Bacillus anthracis) (UniProt P15917); conditions: at 1 mM
T2 sequence (whole entry): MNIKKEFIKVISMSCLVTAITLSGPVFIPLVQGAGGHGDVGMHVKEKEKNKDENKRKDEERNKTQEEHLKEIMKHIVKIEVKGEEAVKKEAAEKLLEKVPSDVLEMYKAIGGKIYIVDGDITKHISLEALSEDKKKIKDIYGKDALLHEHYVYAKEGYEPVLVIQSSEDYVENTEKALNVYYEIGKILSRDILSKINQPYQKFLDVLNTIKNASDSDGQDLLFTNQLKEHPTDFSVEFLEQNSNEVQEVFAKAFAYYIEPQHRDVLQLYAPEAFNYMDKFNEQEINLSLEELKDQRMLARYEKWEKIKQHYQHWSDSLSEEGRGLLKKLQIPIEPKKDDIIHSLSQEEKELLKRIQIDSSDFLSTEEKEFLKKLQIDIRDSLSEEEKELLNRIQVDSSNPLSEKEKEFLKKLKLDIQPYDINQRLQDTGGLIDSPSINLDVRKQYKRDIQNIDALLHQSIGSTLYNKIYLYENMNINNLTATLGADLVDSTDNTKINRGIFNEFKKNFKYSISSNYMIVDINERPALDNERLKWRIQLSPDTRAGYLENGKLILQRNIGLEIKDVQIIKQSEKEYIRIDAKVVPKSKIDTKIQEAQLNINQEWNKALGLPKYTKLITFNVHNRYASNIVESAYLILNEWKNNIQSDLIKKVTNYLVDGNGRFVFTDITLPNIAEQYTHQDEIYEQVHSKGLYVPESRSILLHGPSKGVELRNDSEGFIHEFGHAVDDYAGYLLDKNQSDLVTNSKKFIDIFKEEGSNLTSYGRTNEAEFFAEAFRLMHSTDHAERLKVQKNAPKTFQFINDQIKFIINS

[3] = molecular target: Stromelysin-1 (Homo sapiens) (UniProt P08254); conditions: at 1 mM;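 note: recombinant enzyme, inhibition read after a 30 min incubation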
Sequence of Stromelysin-1 (Homo sapiens) (P08254 100-477 limits assumed): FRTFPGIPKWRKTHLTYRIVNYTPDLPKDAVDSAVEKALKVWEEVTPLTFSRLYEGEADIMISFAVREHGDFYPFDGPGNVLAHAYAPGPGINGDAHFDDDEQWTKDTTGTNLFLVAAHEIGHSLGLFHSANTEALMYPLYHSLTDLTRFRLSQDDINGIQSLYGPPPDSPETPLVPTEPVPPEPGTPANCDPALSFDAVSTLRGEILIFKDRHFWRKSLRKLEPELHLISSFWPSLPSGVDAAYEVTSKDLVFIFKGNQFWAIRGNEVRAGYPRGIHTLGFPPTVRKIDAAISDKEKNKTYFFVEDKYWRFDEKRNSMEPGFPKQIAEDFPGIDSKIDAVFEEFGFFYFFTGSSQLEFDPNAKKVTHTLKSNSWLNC

[4] = molecular target: Neutrophil collagenase (Homo sapiens) (UniProt P22894); conditions: at 1 mM;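 note: recombinant human MMP8 enzyme, percent inhibition read after 30 min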
Sequence of Neutrophil collagenase (Homo sapiens) (P22894 101-467 limits assumed): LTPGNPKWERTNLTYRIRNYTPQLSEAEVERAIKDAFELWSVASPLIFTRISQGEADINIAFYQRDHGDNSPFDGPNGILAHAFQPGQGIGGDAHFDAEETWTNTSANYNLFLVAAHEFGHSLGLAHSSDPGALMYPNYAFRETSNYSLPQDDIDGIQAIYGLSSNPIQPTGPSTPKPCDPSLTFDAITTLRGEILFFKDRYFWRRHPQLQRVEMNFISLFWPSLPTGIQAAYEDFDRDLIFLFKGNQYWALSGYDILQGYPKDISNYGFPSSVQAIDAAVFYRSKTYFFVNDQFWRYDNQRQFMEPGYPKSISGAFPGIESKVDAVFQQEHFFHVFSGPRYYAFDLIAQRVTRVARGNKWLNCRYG

[5] = molecular target: Matrix metalloproteinase-9 (Homo sapiens) (UniProt P14780); conditions: at 1 mM;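 note: recombinant human MMP9, activity read after 30 min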
Sequence of Matrix metalloproteinase-9 (Homo sapiens) (P14780 whole entry): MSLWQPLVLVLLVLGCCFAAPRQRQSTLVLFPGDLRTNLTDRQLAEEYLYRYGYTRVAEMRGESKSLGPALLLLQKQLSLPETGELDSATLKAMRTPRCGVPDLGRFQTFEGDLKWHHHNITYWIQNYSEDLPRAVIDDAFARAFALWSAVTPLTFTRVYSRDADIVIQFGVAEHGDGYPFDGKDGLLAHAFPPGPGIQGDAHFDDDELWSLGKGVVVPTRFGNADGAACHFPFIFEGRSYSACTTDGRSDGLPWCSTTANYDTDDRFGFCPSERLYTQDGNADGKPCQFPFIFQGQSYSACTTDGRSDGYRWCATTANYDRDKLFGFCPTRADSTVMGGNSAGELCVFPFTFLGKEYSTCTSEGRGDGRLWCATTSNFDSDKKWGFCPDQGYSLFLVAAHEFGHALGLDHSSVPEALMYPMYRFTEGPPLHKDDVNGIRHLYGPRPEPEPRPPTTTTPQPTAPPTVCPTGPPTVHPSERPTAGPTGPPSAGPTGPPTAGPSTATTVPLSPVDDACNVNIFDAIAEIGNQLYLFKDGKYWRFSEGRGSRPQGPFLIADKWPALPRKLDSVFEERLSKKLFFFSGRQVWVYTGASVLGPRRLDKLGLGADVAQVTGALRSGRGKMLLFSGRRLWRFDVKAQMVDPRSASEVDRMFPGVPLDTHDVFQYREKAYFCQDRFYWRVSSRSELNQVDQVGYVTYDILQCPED

[6] = molecular target: T3, Nitric oxide synthase, inducible (Mus musculus) (UniProt P29477); conditions: at 1 mM;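 note: recombinant enzyme, activity read out colorimetrically after 40 min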
T3 sequence (whole entry): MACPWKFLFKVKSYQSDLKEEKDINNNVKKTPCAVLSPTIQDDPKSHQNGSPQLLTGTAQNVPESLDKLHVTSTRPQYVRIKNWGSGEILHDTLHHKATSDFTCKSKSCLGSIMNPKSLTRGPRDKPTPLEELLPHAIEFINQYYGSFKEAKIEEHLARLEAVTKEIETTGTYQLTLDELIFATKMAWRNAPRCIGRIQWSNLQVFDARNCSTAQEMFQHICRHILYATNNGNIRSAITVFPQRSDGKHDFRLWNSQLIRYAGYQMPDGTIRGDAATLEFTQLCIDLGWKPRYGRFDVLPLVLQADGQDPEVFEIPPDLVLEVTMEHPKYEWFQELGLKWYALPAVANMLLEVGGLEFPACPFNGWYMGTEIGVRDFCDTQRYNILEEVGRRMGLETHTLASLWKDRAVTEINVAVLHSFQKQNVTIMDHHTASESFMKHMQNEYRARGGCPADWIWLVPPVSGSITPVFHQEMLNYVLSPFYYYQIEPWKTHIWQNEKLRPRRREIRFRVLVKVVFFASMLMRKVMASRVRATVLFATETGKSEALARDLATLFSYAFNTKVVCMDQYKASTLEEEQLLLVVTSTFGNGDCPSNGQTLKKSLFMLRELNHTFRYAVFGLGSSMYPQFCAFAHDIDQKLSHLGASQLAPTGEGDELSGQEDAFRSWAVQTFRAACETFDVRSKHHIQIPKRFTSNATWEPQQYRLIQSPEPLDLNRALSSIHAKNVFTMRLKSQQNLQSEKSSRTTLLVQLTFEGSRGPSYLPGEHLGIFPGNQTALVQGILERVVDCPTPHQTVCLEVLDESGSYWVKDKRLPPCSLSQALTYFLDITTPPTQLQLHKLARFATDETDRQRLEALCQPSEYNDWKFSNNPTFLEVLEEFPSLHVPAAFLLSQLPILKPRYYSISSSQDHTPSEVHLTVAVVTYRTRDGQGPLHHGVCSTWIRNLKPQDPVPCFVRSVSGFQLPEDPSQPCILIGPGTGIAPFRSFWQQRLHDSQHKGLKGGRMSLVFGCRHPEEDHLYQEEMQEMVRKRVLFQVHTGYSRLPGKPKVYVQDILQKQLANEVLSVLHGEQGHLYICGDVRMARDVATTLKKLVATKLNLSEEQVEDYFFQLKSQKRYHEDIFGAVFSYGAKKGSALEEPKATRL

| SMILES | inhibition [1] | inhibition [2] | inhibition [3] | inhibition [4] | inhibition [5] | inhibition [6] |
| --- | --- | --- | --- | --- | --- | --- |
| Cc1occ(O)c(=O)c1C(=O)O | 80% | 45% | 80% | 55% | 51% | 17% |
| CC(=O)C(C)C(C)=O | 64% | -7% | -1% | 3% | -4% | 7% |
| Cc1nc(O)nc(O)c1C | 33% | 28% | 10% | 2% | -4% | 46% |
| O=C(O)c1cc(F)ccc1O | 49% | 16% | -2% | -1% | 21% | 1% |
| Cc1cc(=O)c(O)c(CCl)o1 | 72% | 21% | 59% | 47% | 41% | 6% |
| Nc1[nH]cnc2ncnc1-2 | 9% | 16% | 10% | 9% | -3% | 6% |
| O=C(O)c1ccccc1O | 20% | 6% | -2% | 14% | 12% | 13% |
| Nc1cc(=O)nc(N)[nH]1 | 65% | 34% | 14% | 4% | 2% | 7% |
| Cc1cc(=O)c(O)co1 | 80% | 22% | 29% | 31% | 31% | -3% |
| O=C(O)c1ccccn1 | 16% | 49% | 99% | 30% | 0% | 6% |
| O=C(O)c1ccc(F)cc1O | 31% | 17% | -2% | 4% | 5% | 1% |
| O=C(O)c1ccc(C(=O)O)nc1 | 31% | 18% | 91% | -1% | -2% | -4% |
| O=C(O)c1cccc(C(=O)O)n1 | 31% | 83% | 54% | 17% | -7% | 20% |
| [O-][n+]1cccc2cccc(O)c21 | 66% | 59% | 81% | 64% | 67% | 28% |
| c1ccc(CNCc2ccccn2)nc1 | 29% | 41% | 93% | 100% | 84% | -2% |
| C1CNCCNCCN1 | 25% | 59% | 48% | 104% | 100% | 0% |

| SMILES | inhibition [1] | inhibition [2] | inhibition [3] | inhibition [4] | inhibition [5] | inhibition [6] |
| --- | --- | --- | --- | --- | --- | --- |
| O=c1occcc1O | 77% | 21% | 72% | 68% | 70% | 42% |
| CCCCc1ccc(C(=O)O)nc1 | 23% | 29% | 80% | 47% | 18% | 10% |
| O=C(O)c1cccc(O)c1O | 80% | 9% | -1% | 10% | 11% | 2% |
| CCn1ccc(=O)c(O)c1C | 80% | 10% | -8% | 29% | 10% | -9% |
| Nc1ccc(C(=O)O)c(O)c1 | 60% | 30% | 4% | 8% | 24% | 8% |
| O=C(O)c1cccc(Br)n1 | 29% | 75% | 18% | 1% | 4% | 17% |
| O=C(O)c1cccc[n+]1[O-] | 31% | 40% | 18% | 21% | 8% | -1% |
| O=C(O)c1nccc2ccccc12 | 18% | 31% | 67% | 13% | 26% | 13% |
| O=c1ccocc1O | 81% | 29% | 35% | 43% | 45% | 22% |
| Oc1ncccn1 | 8% | 28% | 49% | 100% | 51% | 6% |
| Cc1ccc(S(N)(=O)=O)cc1 | 25% | 6% | -5% | 9% | -7% | -5% |
| CC(=O)C1CCCC1=O (stereo unspecified) | 79% | 6% | 4% | 37% | 25% | 29% |
| Cc1cccc(C(=O)O)c1O | 22% | 8% | 13% | 18% | 14% | 13% |
| Cn1cccc(O)c1=O | 88% | 1% | -3% | 13% | 8% | -5% |
| O=c1cc(CCl)occ1O | 87% | 30% | 68% | 59% | 42% | 63% |
